In this experiment the target is T1, μ-opioid receptor (MOPR) (Mus musculus, UniProt P42866).
T1 construct: from tissue; host or cells: ventral tegmental area of living wild-type C57Bl6 mice (in vivo)
Nature of the experiment: Contraversive rotation/locomotor testing assay after wireless intra-VTA infusion. The class given is in vivo. The conditions noted are these: 200 pmol, wireless unilateral intra-VTA infusion, within-subject vs ACSF vehicle, wild-type mice, n=7.

One compound from patent US11160489B2, “Wireless optofluidic systems for programmable in vivo pharmacology and optogenetics” (THE BOARD OF TRUSTEES OF THE UNIVERSITY OF ILLINOIS, priority 2015, dated 2021) can be followed below.

“Also recorded” adds a separate entry of the source.

T1 sequence (P42866 whole entry): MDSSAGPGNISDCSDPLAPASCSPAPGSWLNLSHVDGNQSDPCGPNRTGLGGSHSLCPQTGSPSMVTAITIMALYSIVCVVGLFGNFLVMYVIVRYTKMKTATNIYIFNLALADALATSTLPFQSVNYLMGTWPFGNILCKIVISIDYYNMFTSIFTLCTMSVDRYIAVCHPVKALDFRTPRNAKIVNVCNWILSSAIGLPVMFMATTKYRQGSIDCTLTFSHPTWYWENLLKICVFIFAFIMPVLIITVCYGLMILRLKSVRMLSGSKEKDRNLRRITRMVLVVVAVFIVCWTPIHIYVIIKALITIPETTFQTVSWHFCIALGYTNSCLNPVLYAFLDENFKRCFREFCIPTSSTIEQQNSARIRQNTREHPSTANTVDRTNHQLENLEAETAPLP
From the text: As a proof-of-principle within-subject in vivo pharmacology experiment, two chambers of each device were loaded with different pharmacological agents; one with the synthetic opioid peptide and MOPR agonist, [D-Ala^2, N-MePhe^4, Gly-ol]-enkephalin (DAMGO, 200 pmol, Tocris), and one with artificial cerebral spinal fluid (ACSF) as a vehicle control. In a counter-balanced design, either the DAMGO or vehicle was wirelessly delivered into the VTA of freely behaving animals over a distance of ˜1 m away from the animal (FIGS. 88, A and B).
After the mice were acclimatized to the holding facility for seven to nine days, they were anaesthetized in an induction chamber (4% Isolflurane) and placed in a stereotaxic frame (Kopf Instruments, Model 1900) where they were maintained at 1-2% isoflurane. […] For the DAMGO-induced rotation experiment, mice were implanted with the microfluidic device above the VTA (stereotaxic coordinates from bregma (mm): AP:-3.10, ML: +/−0.50, DV: −4.25). […] A standard electrode holder (KOPF 1770) was adapted to implant the microfluidic and optofluidic devices. […] The implants were secured using two bone screws (CMA, 743102) and affixed with dental cement (Lang Dental). C571Bl6 mice were allowed to recover for 5 days prior to behavioral testing.
C571Bl6 mice with microfluidic devices implanted above the VTA were placed in the center of the same arena used for the OFT and allowed to roam freely for 1 hr. Wireless infusion of vehicle or DAMGO was initiated and movements were video recorded and analyzed using Ethovision. Rotations were defined as full 360° revolutions in the path of movement.

Consider `C[C@@H](NC(=O)[C@@H](N)Cc1ccc(O)cc1)C(=O)NCC(=O)N(C)[C@@H](Cc1ccccc1)C(=O)NCCO` [DAMGO, [D-Ala^2, N-MePhe^4, Gly-ol]-enkephalin], for which the “contraversive 360° rotations” value is reported as “significant increase; also recorded: stereotypical rotations contralateral to injection site” and the overall locomotor activity result is on record as “significant increase; also recorded: robust increase in overall locomotor activity”.
